Reference: PubChem BioAssay AID256 (DTP/NCI, 2004)
“And” between values parts separate entries of the source, which are not always exact repeats. Identical values can stand only once. Toxic doses and inconclusive results are not listed.

System: CD2F1 mice, L1210 leukemia ip, survival T/C
Experiment: NCI In Vivo Anticancer Drug Screen. Data for tumor model L1210 Leukemia (intraperitoneal) in CD2F1 (CDF1) mice
Details: higher = longer survival
In short: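 Each value reflects a quotient of treated over vehicle control outcomes in mice with a transplanted tumor.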

N=c1ccn2c(n1)OC1C(OP(=O)(O)O)C(CO)OC12 (stereo not given)
T/C (endpoint: mean survival time, dose: 2.9 mg/kg/injection, schedule: Q01DX009 (ip), vehicle: saline): 101 % of control | T/C (endpoint: mean survival time, dose: 4.4 mg/kg/injection, schedule: Q03HX024 (oral), vehicle: water): 117 % of control | T/C (endpoint: mean survival time, dose: 5.8 mg/kg/injection, schedule: Q01DX009 (ip), vehicle: saline): 119 % of control | T/C (endpoint: mean survival time, dose: 8.0 mg/kg/injection, schedule: Q03HX008 (ip), vehicle: saline): 122 % of control | T/C (endpoint: mean survival time, dose: 8.0 mg/kg/injection, schedule: Q03HX024 (ip), vehicle: saline): 177 % of control | T/C (endpoint: mean survival time, dose: 8.7 mg/kg/injection, schedule: Q03HX024 (ip), vehicle: saline): 163 % of control | T/C (endpoint: mean survival time, dose: 11.6 mg/kg/injection, schedule: Q01DX009 (oral), vehicle: water): 120 % of control | T/C (endpoint: mean survival time, dose: 16.0 mg/kg/injection, schedule: Q03HX008 (oral), vehicle: saline): 120 % of control | T/C (endpoint: mean survival time, dose: 16.0 mg/kg/injection, schedule: Q03HX024 (ip), vehicle: saline): 225 % of control | T/C (endpoint: mean survival time, dose: 17.4 mg/kg/injection, schedule: Q03HX024 (ip), vehicle: saline): 217 % of control | T/C (endpoint: mean survival time, dose: 17.4 mg/kg/injection, schedule: Q03HX024 (oral), vehicle: water): 163 % of control | T/C (endpoint: mean survival time, dose: 23.2 mg/kg/injection, schedule: Q01DX009 (ip), vehicle: saline): 157 % of control | T/C (endpoint: mean survival time, dose: 23.2 mg/kg/injection, schedule: Q01DX009 (oral), vehicle: water): 122 % of control | T/C (endpoint: mean survival time, dose: 32.0 mg/kg/injection, schedule: Q01DX009 (ip), vehicle: saline): 159 % of control | T/C (endpoint: mean survival time, dose: 32.0 mg/kg/injection, schedule: Q01DX009 (oral), vehicle: saline): 111 % of control | T/C (endpoint: mean survival time, dose: 32.0 mg/kg/injection, schedule: Q03HX024 (ip), vehicle: saline): 283 % of control | T/C (endpoint: mean survival time, dose: 32.0 mg/kg/injection, schedule: Q03HX024 (oral), vehicle: saline): 177 % of control | T/C (endpoint: mean survival time, dose: 34.8 mg/kg/injection, schedule: Q03HX024 (ip), vehicle: saline): 229 % of control | T/C (endpoint: mean survival time, dose: 34.8 mg/kg/injection, schedule: Q03HX024 (oral), vehicle: water): 193 % of control | T/C (endpoint: mean survival time, dose: 46.4 mg/kg/injection, schedule: Q01DX009 (ip), vehicle: saline): 170 % of control | T/C (endpoint: mean survival time, dose: 64.0 mg/kg/injection, schedule: Q01DX009 (ip), vehicle: saline): 169 % of control | T/C (endpoint: mean survival time, dose: 64.0 mg/kg/injection, schedule: Q03HX024 (ip), vehicle: saline): 418 % of control | T/C (endpoint: mean survival time, dose: 64.0 mg/kg/injection, schedule: Q03HX024 (oral), vehicle: saline): 231 % of control | T/C (endpoint: mean survival time, dose: 69.6 mg/kg/injection, schedule: Q03HX024 (ip), vehicle: saline): 228 % of control | T/C (endpoint: mean survival time, dose: 69.6 mg/kg/injection, schedule: Q03HX024 (oral), vehicle: water): 291 % of control | T/C (endpoint: mean survival time, dose: 92.8 mg/kg/injection, schedule: Q01DX009 (ip), vehicle: saline): 195 % of control | T/C (endpoint: mean survival time, dose: 92.8 mg/kg/injection, schedule: Q01DX009 (oral), vehicle: water): 153 % of control | T/C (endpoint: mean survival time, dose: 128.0 mg/kg/injection, schedule: Q01DX001 (ip), vehicle: saline): 112 % of control | T/C (endpoint: mean survival time, dose: 128.0 mg/kg/injection, schedule: Q01DX001 (oral), vehicle: saline): 104 % of control | T/C (endpoint: mean survival time, dose: 128.0 mg/kg/injection, schedule: Q01DX009 (ip), vehicle: saline): 200 % of control | T/C (endpoint: mean survival time, dose: 128.0 mg/kg/injection, schedule: Q01DX009 (oral), vehicle: saline): 166 % of control | T/C (endpoint: mean survival time, dose: 128.0 mg/kg/injection, schedule: Q03HX008 (oral), vehicle: saline): 157 % of control | T/C (endpoint: mean survival time, dose: 128.0 mg/kg/injection, schedule: Q03HX024 (oral), vehicle: saline): 231 % of control | T/C (endpoint: mean survival time, dose: 128.0 mg/kg/injection, schedule: Q04DX003 (ip), vehicle: saline): 154 % of control | T/C (endpoint: mean survival time, dose: 128.0 mg/kg/injection, schedule: Q04DX003 (oral), vehicle: saline): 111 % of control | T/C (endpoint: mean survival time, dose: 139.2 mg/kg/injection, schedule: Q03HX024 (ip), vehicle: saline): 221 % of control | T/C (endpoint: mean survival time, dose: 139.2 mg/kg/injection, schedule: Q03HX024 (oral), vehicle: water): 273 % of control | T/C (endpoint: mean survival time, dose: 185.6 mg/kg/injection, schedule: Q01DX009 (oral), vehicle: water): 197 % of control | T/C (endpoint: mean survival time, dose: 256.0 mg/kg/injection, schedule: Q01DX001 (ip), vehicle: saline): 122 % of control | T/C (endpoint: mean survival time, dose: 256.0 mg/kg/injection, schedule: Q01DX001 (oral), vehicle: saline): 107 % of control | T/C (endpoint: mean survival time, dose: 256.0 mg/kg/injection, schedule: Q01DX009 (oral), vehicle: saline): 201 % of control | T/C (endpoint: mean survival time, dose: 256.0 mg/kg/injection, schedule: Q04DX003 (ip), vehicle: saline): 180 % of control | T/C (endpoint: mean survival time, dose: 278.4 mg/kg/injection, schedule: Q03HX024 (ip), vehicle: saline): 86 % of control | T/C (endpoint: mean survival time, dose: 371.2 mg/kg/injection, schedule: Q01DX009 (oral), vehicle: water): 174 % of control | T/C (endpoint: mean survival time, dose: 512.0 mg/kg/injection, schedule: Q04DX003 (ip), vehicle: saline): 219 % of control | T/C (endpoint: mean survival time, dose: 512.0 mg/kg/injection, schedule: Q04DX003 (oral), vehicle: saline): 173 % of control | T/C (endpoint: mean survival time, dose: 1024.0 mg/kg/injection, schedule: Q01DX001 (ip), vehicle: saline): 154 % of control | T/C (endpoint: mean survival time, dose: 1024.0 mg/kg/injection, schedule: Q04DX003 (ip), vehicle: saline): 359 % of control | T/C (endpoint: mean survival time, dose: 1024.0 mg/kg/injection, schedule: Q04DX003 (oral), vehicle: saline): 220 % of control

O=S1(=O)CS(=O)(=O)OCCO1
T/C (endpoint: median survival time, dose: 6.25 mg/kg/injection, schedule: Q01DX009 (oral), vehicle: Klucel (hydroxypropylcellulose) (HPC)): 112 % of control | T/C (endpoint: median survival time, dose: 12.5 mg/kg/injection, schedule: Q01DX001 (oral), vehicle: Klucel (hydroxypropylcellulose) (HPC)): 101 % of control | T/C (endpoint: median survival time, dose: 22.0 mg/kg/injection, schedule: Q06HX002 (oral), vehicle: Klucel (hydroxypropylcellulose) (HPC)): 113 % of control | T/C (endpoint: median survival time, dose: 25.0 mg/kg/injection, schedule: Q01DX001 (oral), vehicle: Klucel (hydroxypropylcellulose) (HPC)): 112 % of control | T/C (endpoint: median survival time, dose: 25.0 mg/kg/injection, schedule: Q01DX009 (oral), vehicle: Klucel (hydroxypropylcellulose) (HPC)): 213 % of control | T/C (endpoint: median survival time, dose: 33.0 mg/kg/injection, schedule: Q01DX001 (oral), vehicle: Klucel (hydroxypropylcellulose) (HPC)): 117 % of control | T/C (endpoint: median survival time, dose: 33.0 mg/kg/injection, schedule: Q01DX005 (oral), vehicle: Klucel (hydroxypropylcellulose) (HPC)): 103 % of control | T/C (endpoint: median survival time, dose: 33.0 mg/kg/injection, schedule: Q06HX002 (oral), vehicle: Klucel (hydroxypropylcellulose) (HPC)): 117 % of control | T/C (endpoint: median survival time, dose: 49.5 mg/kg/injection, schedule: Q01DX001 (oral), vehicle: Klucel (hydroxypropylcellulose) (HPC)): 123 % of control | T/C (endpoint: median survival time, dose: 50.0 mg/kg/injection, schedule: Q01DX001 (oral), vehicle: Klucel (hydroxypropylcellulose) (HPC)): 119 % of control | T/C (endpoint: median survival time, dose: 50.0 mg/kg/injection, schedule: Q01DX009 (oral), vehicle: Klucel (hydroxypropylcellulose) (HPC)): 178 % of control and 337 % of control | T/C (endpoint: median survival time, dose: 74.2 mg/kg/injection, schedule: Q01DX005 (oral), vehicle: Klucel (hydroxypropylcellulose) (HPC)): 185 % of control | T/C (endpoint: median survival time, dose: 100.0 mg/kg/injection, schedule: Q01DX001 (oral), vehicle: Klucel (hydroxypropylcellulose) (HPC)): 124 % of control | T/C (endpoint: median survival time, dose: 100.0 mg/kg/injection, schedule: Q01DX009 (oral), vehicle: Klucel (hydroxypropylcellulose) (HPC)): 238 % of control | T/C (endpoint: median survival time, dose: 111.2 mg/kg/injection, schedule: Q01DX005 (oral), vehicle: Klucel (hydroxypropylcellulose) (HPC)): 212 % of control | T/C (endpoint: median survival time, dose: 112.5 mg/kg/injection, schedule: Q01DX001 (oral), vehicle: Klucel (hydroxypropylcellulose) (HPC)): 235 % of control | T/C (endpoint: median survival time, dose: 166.8 mg/kg/injection, schedule: Q01DX001 (oral), vehicle: Klucel (hydroxypropylcellulose) (HPC)): 160 % of control | T/C (endpoint: median survival time, dose: 166.8 mg/kg/injection, schedule: Q01DX005 (oral), vehicle: Klucel (hydroxypropylcellulose) (HPC)): 272 % of control | T/C (endpoint: median survival time, dose: 200.0 mg/kg/injection, schedule: Q01DX001 (oral), vehicle: Klucel (hydroxypropylcellulose) (HPC)): 178 % of control | T/C (endpoint: median survival time, dose: 250.0 mg/kg/injection, schedule: Q01DX001 (oral), vehicle: Klucel (hydroxypropylcellulose) (HPC)): 225 % of control

OC(CCc1ccccc1)(C(F)(F)F)C(F)(F)F
T/C (endpoint: mean survival time, dose: 100.0 mg/kg/injection, schedule: Q04DX003 (ip), vehicle: Klucel (hydroxypropylcellulose) (HPC)): 92 % of control | T/C (endpoint: mean survival time, dose: 200.0 mg/kg/injection, schedule: Q04DX003 (ip), vehicle: Klucel (hydroxypropylcellulose) (HPC)): 95 % of control | T/C (endpoint: mean survival time, dose: 400.0 mg/kg/injection, schedule: Q04DX003 (ip), vehicle: Klucel (hydroxypropylcellulose) (HPC)): 97 % of control

CS(=O)(=O)CC1C2CCC(CC2)C1CS(C)(=O)=O (stereo not given)
T/C (endpoint: mean survival time, dose: 100.0 mg/kg/injection, schedule: Q01DX001 (ip), vehicle: saline with Tween-80): 93 % of control | T/C (endpoint: mean survival time, dose: 200.0 mg/kg/injection, schedule: Q01DX001 (ip), vehicle: saline with Tween-80): 106 % of control | T/C (endpoint: mean survival time, dose: 400.0 mg/kg/injection, schedule: Q01DX001 (ip), vehicle: saline with Tween-80): 92 % of control

O=c1[nH]c(=O)n(C2CC(O)C(CO)O2)cc1COCc1ccccc1 (stereo not given)
T/C (endpoint: mean survival time, dose: 100.0 mg/kg/injection, schedule: Q01DX005 (ip), vehicle: saline): 95 % of control | T/C (endpoint: mean survival time, dose: 200.0 mg/kg/injection, schedule: Q01DX005 (ip), vehicle: saline): 105 % of control and 97 % of control

CC(C)(C)[N+](Cc1ccccc1)(Cc1ccccc1)Cc1ccccc1
T/C (endpoint: mean survival time, dose: 100.0 mg/kg/injection, schedule: Q01DX009 (ip), vehicle: saline with Tween-80): 104 % of control | T/C (endpoint: mean survival time, dose: 200.0 mg/kg/injection, schedule: Q01DX009 (ip), vehicle: saline with Tween-80): 96 % of control | T/C (endpoint: mean survival time, dose: 400.0 mg/kg/injection, schedule: Q01DX009 (ip), vehicle: saline with Tween-80): 98 % of control
